Results on 102 compounds are retold here after ChEMBL document CHEMBL3507680, “University of Dundee, Gates Library screen for HepG2 cell viability”.

The data set can be described thus: Human HepG2 cell viability assay in 384 well format. Particulars: HepG2 cells, read-out: Inhibition. It counts as toxicity, cell-based. Further details: dose 125 nL, time 70.5 hour; concentration not given beside the values.
In the case of `Cn1nc(C2CC2)cc1C(=O)N1CCC(c2nnsc2S(C)(=O)=O)CC1`, the cytotoxicity at 70.5 h is -4.78%.
The result for `O=C1NC2(CCc3ccccc31)CCN(Cc1cccnc1)C2` (configuration not stated) reads 3.7%; that for `Cc1ccc2c(c1)c(C)cc(=O)n2CC(=O)O`, -2.86%.
The result for `Cc1cc(C(F)(F)F)n2nc(C3CCCN(S(C)(=O)=O)C3)cc2n1` (configuration not stated) reads -2.03%.
As for `O=C1NC2(CCN(C(=O)CN3CCOCC3)CC2)Nc2ccc(Cl)cc21`, the figure is -2.29%; as for `Cc1c(CNC2CCN(c3ccccc3OC(F)F)C2)cnn1C` (configuration not stated), -3.92%; as for `O=c1oc2ccccc2n1CCN(CC1CCOC1)C1CC1` (configuration not stated), -11.1%.
For the compound `Cc1cc(C)n(Cc2cccc(C(=O)N3CCOCC3(C)C)c2)n1`, the cytotoxicity at 70.5 h is -10%.
As for `Cc1noc(CN2CCN(C(C)C(=O)NCc3cccs3)CC2)n1` (configuration not stated), the figure is 13.6%.
`CC(C)(C)n1ncc(NCc2ccccc2)c(Cl)c1=O`: the cytotoxicity at 70.5 h amounted to 22.2%.
The result for `O=C(NCCNC(=O)C1CCN(c2ncccn2)CC1)c1ccoc1` reads 6.55%; that for `CC(C)CN1CCC(C(=O)NCCNC(=O)c2ccco2)CC1`, -5.07%; that for `O=C(NCCNC(=O)C1CCN(CC(F)(F)F)CC1)c1ccoc1`, -4.81%.
As for `CN1CCN(C(=O)Cc2csc(-c3ccsc3)n2)C(c2ccccc2)C1` (configuration not stated), the figure is -3.75%; as for `CC(NCc1ccccn1)c1ccc(N2CCN(C)CC2)c(F)c1` (configuration not stated), 11.1%; as for `CC(C)NC(=O)CN(C)C(=O)c1c(Cl)c2ccccc2n1C`, -0.0324%.
For `CC(C)c1nc(CC(=O)N2CCN(C)CC2c2ccccc2)cs1` (configuration not stated), the cytotoxicity at 70.5 h was 12.9%.
`CCC(Nc1ncccn1)c1ccc(OC)cc1` (configuration not stated): the cytotoxicity at 70.5 h turned out to be 6.83%.
As for `N#Cc1ccc(S(=O)(=O)Nc2ccc(N3CCOCC3)cn2)cc1`, the figure is 0.03%.
As for `Cc1cnn(CC2CCN(CC(O)c3ccccc3F)CC2)c1` (configuration not stated), the figure is 8.3%; as for `N#Cc1cnn(C(=O)COc2ccccc2F)c1N`, 1.04%.
As for `CN(C)CCOc1cc(NC(=O)COCC(F)(F)F)ccn1`, the figure is -2.8%; as for `Cc1cc(C(F)(F)F)nc(N(C)Cc2c(C)noc2C)n1`, 13.3%; as for `COCc1ccccc1C(=O)NS(=O)(=O)CCCC#N`, -3.12%.
For `Cc1cccc(CC(=O)NC2CCN(C(=O)NC(C)(C)C)CC2)c1`, the cytotoxicity at 70.5 h is 12.2%.
The result for `Cc1cc(CN2CCN(C(C)C(=O)NCc3cccs3)CC2)no1` (configuration not stated) reads -2.27%; that for `Cc1cnn(CC2CCN(CC(O)CN3CCC(C)CC3)CC2)c1` (configuration not stated), -4.29%.
For `CC(C)NC(=O)CN(C)C(=O)c1c(Br)c2ccccc2n1C`, the cytotoxicity at 70.5 h is -4.11%.
For the compound `COc1ccc(SC(C)C(=O)N2CCC(NC(=O)C3CC3)CC2)cc1` (configuration not stated), the cytotoxicity at 70.5 h came to 8.09%.
As for `Cc1noc(C)c1CN(C)c1nccc(C(F)(F)F)n1`, the figure is 4.31%.
As for `O=C(CCn1cncn1)NCC1CCOC1` (configuration not stated), the figure is -6.75%; as for `O=C(c1ccc(Oc2cccnc2)cc1)N1CCN(CCO)CC1`, -18.5%.
As to `Cc1cnc(CN2CCCCC2c2nc(-c3ccccc3)no2)cn1` (configuration not stated), the cytotoxicity at 70.5 h is -7.59%.
As to `O=C(Nc1cc(Cl)ccc1N1CCCCC1)c1ccccn1`, the cytotoxicity at 70.5 h was 7.77%.
On to `Cc1cc(C)cc(OCCNC(=O)C(C)Sc2nncn2C)c1` (configuration not stated), for which the cytotoxicity at 70.5 h was -10.3%.
As for `O=C(c1cc(Br)c[nH]1)N1CCN(Cc2ccco2)CC1`, the figure is 5.49%.
The result for `CC(C)CNC(=O)C[S+]([O-])Cc1csc(C2CCCCC2)n1` (configuration not stated) reads -13%; that for `CCC(CC(=O)NS(=O)(=O)C(C)C)c1ccccc1` (configuration not stated), 11.1%; that for `O=C(Nc1c(N2CCCC2)cccc1N1CCCC1)c1cnsn1`, -16%.
Consider `CC(C)OCc1ccc(CNC(=O)NC2(CO)CCCC2)cc1`, for which the cytotoxicity at 70.5 h is -10.3%.
As for `CC(C)Oc1cccc(CNC(=O)NC2(CO)CCCC2)c1`, the figure is -11.2%.
`Cc1noc(C)c1CN1CCCCC1c1nc(-c2ccccc2)no1` (configuration not stated): the cytotoxicity at 70.5 h is -9.69%.
The result for `COCCN(Cc1ccccn1)C(=O)CC1OCCc2ccsc21` (configuration not stated) reads -1.83%; that for `CCCc1nn(Cc2csc(CC)n2)c(=O)o1`, -4.3%.
As for `Cc1cc(C2CCCN2C(=O)COc2ccc(CC#N)cc2)on1` (configuration not stated), the figure is -9.16%.
As to `COc1ccc2c(c1)CC(NCc1cccc(OCC(N)=O)c1)CC2` (configuration not stated), the cytotoxicity at 70.5 h is -10.5%.
As for `Cn1cc(-c2noc(C3(C)CCOCC3)n2)cn1`, the figure is 11.7%.
As for `COc1ccc(C2(c3nc(-c4cccnc4)no3)CCOCC2)cc1`, the figure is 34.4%; as for `CC(NC(=O)c1cnccn1)c1nnc2ccccn12` (configuration not stated), -4.81%; as for `Cc1ccc(CN(Cc2cc(=O)n3cccc(C)c3n2)C(C)C)o1`, -14.3%.
As for `Cc1ncc2c(n1)CCN(Cc1ncc(C(C)(C)C)o1)C2`, the figure is -11.4%; as for `CC(=O)N(C)CC(=O)Nc1cc(C(F)(F)F)c[nH]c1=O`, -12.8%; as for `CCCC(NC(=O)c1cnccn1)c1nnc2ccccn12` (configuration not stated), -11%.
On to `CN(CCc1ccccn1)C(=O)Nc1cc(C(F)(F)F)c[nH]c1=O`, for which the cytotoxicity at 70.5 h stood at 8.07%.
As for `COc1cccc(N2CCN(C(=O)c3ccc(=O)n(C)c3)CC2)c1`, the figure is -3.95%.
For the compound `Cn1cnc2c1CCN(c1ccnc(-c3ccccc3)n1)C2`, the cytotoxicity at 70.5 h is -18.3%.
The result for `Cc1nc(C(NC(=O)c2cc(C(C)C)[nH]n2)c2ccccc2)n[nH]1` (configuration not stated) reads -11.7%; that for `CC(NC(=O)c1cc(C(C)C)[nH]n1)C(=O)Nc1ccccc1` (configuration not stated), -6.22%; that for `Cc1ccc2c(c1C)OCC2NCc1cccc(C#N)c1` (configuration not stated), 1.34%.
The result for `Cc1cnn(-c2ccc(S(=O)(=O)N(C)CC(F)F)cc2F)c1` reads -8.45%; that for `O=C(CCNc1ccc(Br)cn1)NCc1ccncc1`, 0.0133%.
As for `O=C(CCNc1ccc(Cl)cn1)NCc1ccncc1`, the figure is -8.13%.
Turning to `CC(C)c1ncc(C(=O)N(C)c2ccc(Br)cn2)s1`, the cytotoxicity at 70.5 h is 5.45%.
As for `CCc1c(NCc2cccnc2)cnn1CC(C)C`, the figure is -5.5%; as for `CCOc1cccc(CNc2cnn(CC(C)C)c2CC)c1`, -7.62%.
As for `CC(C)Oc1ccc(NCc2ccc([S+](C)[O-])cc2)c(F)c1` (configuration not stated), the figure is 7.01%; as for `CN(CC(=O)NCC(CCO)c1ccccc1)C(=O)OC(C)(C)C` (configuration not stated), 27.5%; as for `COc1cccc2c1N(CC(=O)Nc1ccc(Cl)cn1)CCC2`, 0.717%.
As to `CCn1cc(C(=O)NCC(C)(CC)N2CCOCC2)c2ccccc21` (configuration not stated), the cytotoxicity at 70.5 h turned out to be 5.27%.
As for `CCCn1nc(C(=O)NCc2nnc3n2CCC3)ccc1=O`, the figure is 22.5%.
As for `CC(C)(C)NC(=O)c1cnc(C(C)(C)C)s1`, the figure is 3.79%.
The result for `O=C1NCCCCC1NC(=O)C1(c2cccc(Cl)c2)CC1` (configuration not stated) reads -0.123%.
With `CCn1cc(C(=O)NCC2(C(N)=O)CCOCC2)c2ccccc21`, the cytotoxicity at 70.5 h came to 0.306%.
With `CC(Oc1ccc(F)c(F)c1)C(=O)N(CC(N)=O)C1CCCC1` (configuration not stated), the cytotoxicity at 70.5 h was found to be 27.6%.
Take `O=C1NCCCCC1NC(=O)C1(c2ccccc2)CCOCC1` (configuration not stated): the cytotoxicity at 70.5 h was -1.6%.
The result for `C=C(C)CN(CC)C(=O)c1cc(F)ccc1NS(C)(=O)=O` reads -0.0565%; that for `C=C(C)CN(CC)C(=O)c1cc(C)ccc1NS(C)(=O)=O`, 3.16%.
As for `O=C(NCc1cccc(F)c1)c1cccc(C(=O)N2CCCC2)n1`, the figure is 3.72%; as for `CCN(C)c1ccc(CNC(=O)CCn2cc(C)cn2)cc1F`, -1.28%.
As for `O=C(OCCNc1ncccn1)c1ccc(Cl)s1`, the figure is -3.07%; as for `CN(Cc1nnc2n1CCC2)C(=O)c1ccc(=O)n(C)n1`, 4.72%; as for `O=C(OCc1cccc(F)c1)c1cccc(C(=O)N2CCCC2)n1`, -1.08%.
With `COc1ccc(CCNC(=O)C2CCCOC2)c(Cl)c1` (configuration not stated), the cytotoxicity at 70.5 h was 3.61%.
For the compound `Cc1cc(C)n(C2CCCN(C(=O)c3ccnc(N(C)C)c3)C2)n1` (configuration not stated), the cytotoxicity at 70.5 h is -0.851%.
The result for `CN(CC(=O)N1CCCC(n2ccnc2)C1)c1cnccn1` (configuration not stated) reads -1.54%; that for `Cc1nnc(CN2CCCC2c2ccc3c(c2)OCCCO3)n1C` (configuration not stated), -5.99%.
The result for `Cn1c(Cl)cnc1CN1CCCC1c1ccc2c(c1)OCCO2` (configuration not stated) reads 19.4%.
As for `O=C1CCCCN1CCCNCc1cnc(C2CCC2)s1`, the figure is 0.195%; as for `CC(CCN1CCCC1=O)NCc1cnc(C2CCC2)s1` (configuration not stated), -6.2%; as for `COc1cccc(-c2cc(NCc3nc(C)cs3)n(C)n2)c1`, -9.85%.
Consider `COc1cccc(-c2cc(NCc3nccn3C)n(C)n2)c1`, for which the cytotoxicity at 70.5 h was -6.65%.
As to `Cc1nnc(C(C)N2CCN(Cc3noc(C(C)(C)C)n3)CC2)o1` (configuration not stated), the cytotoxicity at 70.5 h was -3.37%.
As for `COc1cc2c(cc1CNCc1cccnc1OC)OC(C)C2` (configuration not stated), the figure is -8.84%.
As for `Cc1cnn(C2CCCN(C(=O)c3cc[nH]n3)C2)c1` (configuration not stated), the figure is -5.43%.
The result for `Cc1cnn(C2CCCN(C(=O)c3cc(-c4ccco4)[nH]n3)C2)c1` (configuration not stated) reads -11.8%.
As to `COc1ccc(S(=O)(=O)Nc2cccnc2-n2cncn2)c(C)c1`, the cytotoxicity at 70.5 h was -8.45%.
The result for `COc1cc2c(cc1CNC(Cc1cccs1)c1nccs1)OCO2` (configuration not stated) reads 18.9%; that for `Cc1cc2c(cc1CNC(Cc1cccs1)c1nccs1)OCO2` (configuration not stated), 1.05%; that for `Cc1ccc(CNC(C)c2ccc(N3CCN(C)CC3)c(F)c2)o1` (configuration not stated), 0.0517%.
As for `CC(C)(CN)NS(=O)(=O)c1cccc(F)c1F`, the figure is 9.16%; as for `Cc1c(F)cccc1S(=O)(=O)NC(C)(C)CN`, -3.29%; as for `CC(NCc1ccncc1)c1ccc(N2CCN(C)CC2)c(F)c1` (configuration not stated), 4.11%.
